pKi: −log10 of the molar value.
Each compound was assayed against Gelatinase (assay: particle concentration fluorescence assay of MMP inhibition in vitro). Conditions: fluorescein/biotin-labelled substrate, avidin-coated particles, room temperature, pH 7.5.
Format: biochemical
Procedure: Inhibitory activity is evaluated in one or more of the MMP enzymes (stromelysin, gelatinase, and collagenase) in vitro using particle concentration fluorescence assay. An inhibitor binds to MMP enzymes which prevents the degradation of a substrate by stromelysin, gelatinase, or collagenase. The substrate has attached to it a fluorescein and a biotin moiety. The intact substrate then binds to an avidin-coated particle via the biotin moiety. Once the particle is washed and dried, a fluorescent signal is generated since the fluorescent group is attached to the particle. Without an inhibitor present, the substrate is degraded by MMP enzymes and the fluorescein group is removed, therefore, no fluorescent signal can be detected. Testing compounds are dissolved in DMSO to the desired concentration, then the solutions are diluted to 1:5 with MMP buffer (50 mM Tris-HCl, pH 7.5; 150 mM NaCl; 0.02% NaN3). Serial two-fold dilutions of each compound are prepared. A concentrated, activated enzyme solution is transferred into each plate of the testing compounds, and the mixture is incubated at room temperature for 15 minutes. Thawed MMP substrate is then added into all plates, and the plates are incubated in the dark for 1-3 hours at room temperature. At this point, the substrate mixture is mixed with 0.1% avidin-coated polystyrene particles. After 15 minutes, the fluorescence values are measured following filtration and washing of the beads. Ki values are then calculated.

SMILES | pKi
CC(C)[C@@H](NS(=O)(=O)c1ccccc1)C(=O)NO [Example 9, N-hydroxy-2(R)-[(benzenesulfonyl)amino]-3-methyl butanamide] | 7.09
CCC(C)(C)C(NS(=O)(=O)c1ccc(OC)cc1)C(=O)NO (stereo not drawn) [Example 10, N-Hydroxy-2-[(4-methoxybenzenesulfonyl)-amino]-3,3-dimethyl pentanamide] | 8.01
COc1ccc(S(=O)(=O)N[C@H](Cc2c[nH]c3ccccc23)C(=O)NO)cc1 [Example 1, N-hydroxy-2(R)-[(4-methoxybenzenesulfonyl)amino]-3-(3-indolyl)-propanamide] | 8.11
COc1ccc(S(=O)(=O)N[C@H](Cc2ccccc2)C(=O)NO)cc1 [Example 4, N-hydroxy-2(R)-[(4-methoxybenzenesulfonyl)-amino]-3-phenyl-propanamide] | 8.14
O=C(NO)[C@@H](Cc1c[nH]c2ccccc12)NS(=O)(=O)c1ccc(Br)cc1 [Example 5, N-hydroxy-2(R)-[(4-bromobenzenesulfonyl)amino]-3-(3-indolyl)-propanamide] | 8.59
O=C(NO)[C@@H](Cc1c[nH]c2ccccc12)NS(=O)(=O)c1ccc(F)cc1 [Example 3, N-hydroxy-2(R)-[(4-fluorobenzenesulfonyl)-amino]-3-(3-indolyl)-propanamide] | 7.10
CCCCCCCCS(=O)(=O)N[C@H](Cc1c[nH]c2ccccc12)C(=O)NO [Example 6, N-hydroxy-2(R)-[(n-octylsulfonyl)amino]-3-(3-indolyl)-propanamide] | 7.92
O=C(NO)[C@@H](Cc1c[nH]c2ccccc12)NS(=O)(=O)c1ccccc1 [Example 2, N-hydroxy-2(R)-[(benzenesulfonyl)amino]-3-(3-indolyl)-propanamide] | 7.85
COc1ccc(S(=O)(=O)N[C@@H](C(=O)NO)c2ccccc2)cc1 [Example 7, N-hydroxy-2(R)-[(4-methoxybenzenesulfonyl)amino]-2-phenyl acetamide] | 8.48

Reference: patent publication US5804593A, “α-Amino sulfonyl hydroxamic acids as matrix metalloproteinase inhibitors” (Pharmacia & Upjohn Company, priority 1997, dated 1998)
